Measured values from patent publication US9382218B2, “N-heteroaryl substituted aniline derivatives as HCV-antivirals” (priority 2013, dated 2016).

How the values were obtained:
Test in all cases: microbe, parasite or virus in culture
[1] = tested on: HCVpp GT-1b (pseudotyped HCV particles, E1/E2 of GT1b Con1 strain); format: cell-based, Hepatitis C virus GT1b Con1 strain; conditions: Hepatitis C virus, 72 h, read-out: HCVpp GT-1b (EC50, M)
[2] = tested on: HCVpp GT-1a (pseudotyped HCV particles, E1/E2 of GT1a H77 strain); format: cell-based, Hepatitis C virus GT1a H77 strain; conditions: Hepatitis C virus, 72 h, read-out: HCVpp GT-1a (EC50, M)
[3] = tested on: VSVpp (pseudotyped VSV G particles); format: cell-based; conditions: Vesicular stomatitis virus, 72 h, read-out: VSVpp (EC50, M)

`Nc1nc(Nc2cc(Cl)cc(Cl)c2)no1` [Compound 6, N^3-(3,5-Dichloro-phenyl)-[1,2,4]oxadiazole-3,5-diamine] gave an EC50 [1] of 1.03e-05 M, an EC50 [2] of 3.55e-06 M and an EC50 [3] of 8.6e-05 M.
With `Nc1cnc(Nc2cc(Cl)cc(Cl)c2)o1` [Compound 11, N^2-(3,5-Dichloro-phenyl)-oxazole-2,5-diamine] the EC50 [2] was 2.93e-05 M and the EC50 [3] was ≥ 0.0001 M.
Molecule `CS(=O)(=O)Nc1cccc(-c2c(Cl)cc(Nc3nc(N)no3)cc2C(F)(F)F)c1` [Compound 9, N-[4′-(3-Amino-[1,2,4]oxadiazol-5-ylamino)-6′-chloro-2′-trifluoromethyl-biphenyl-3-yl]-methanesulfonamide] has an EC50 [1] of 2.99e-06 M and an EC50 [3] of 7.04e-06 M.
Molecule `Nc1noc(Nc2cc(Cl)cc(Cl)c2)n1` [Compound 5, N^5-(3,5-Dichloro-phenyl)-[1,2,4]oxadiazole-3,5-diamine] has an EC50 [1] of 9.22e-06 M, an EC50 [2] of 8.63e-06 M and an EC50 [3] of 9.8e-06 M.
In the case of `CS(=O)(=O)Nc1cccc(-c2c(Cl)cc(Nc3noc(N)n3)cc2C(F)(F)F)c1` [Compound 10, N-[4′-(5-Amino-[1,2,4]oxadiazol-3-ylamino)-6′-chloro-2′-trifluoromethyl-biphenyl-3-yl]-methanesulfonamide], the EC50 [1] is reported as 1.53e-06 M and the EC50 [3] is reported as 9.87e-06 M.
With `Nc1cc(Nc2cc(Cl)c(F)c(Cl)c2)[nH]n1` [Compound 2, N^5-(3,5-Dichloro-4-fluoro-phenyl)-1H-pyrazole-3,5-diamine] the EC50 [1] was 5.22e-05 M and the EC50 [3] was 3.4e-05 M.
In the case of `Nc1cc(Nc2cc(Cl)cc(Cl)c2)[nH]n1` [Compound 1, N^5-(3,5-Dichloro-phenyl)-1H-pyrazole-3,5-diamine], the EC50 [1] is reported as 6.4e-05 M, the EC50 [2] is reported as 3.99e-05 M and the EC50 [3] is reported as ≥ 0.0001 M.
`Cc1nnc(Nc2cc(Cl)cc(Cl)c2)o1` [Compound 3, (3,5-Dichloro-phenyl)-(5-methyl-[1,3,4]oxadiazol-2-yl)-amine] was tested, and the EC50 [1] was 3.58e-05 M, the EC50 [2] was 3.93e-05 M and the EC50 [3] was ≥ 0.0001 M.
With `Nc1nc(Nc2cccc(C(F)(F)F)c2)no1` [Compound 4, N^3-(3-Trifluoromethyl-phenyl)-[1,2,4]oxadiazole-3,5-diamine] the EC50 [1] was 6.06e-06 M, the EC50 [2] was 1.36e-06 M and the EC50 [3] was > 0.0001 M.
In the case of `Nc1nc(Nc2cc(Cl)cc(C(F)(F)F)c2)no1` [Compound 8, N^3-(3-Chloro-5-trifluoromethyl-phenyl)-[1,2,4]oxadiazole-3,5-diamine], the EC50 [1] is reported as 9.03e-06 M and the EC50 [3] is reported as ≥ 0.0001 M.
